“And” between values parts separate entries of the source, which are not always exact repeats. Equal values may be shown once. Read-outs that look alike come from different tables or passages of the source.
Assays:
Assay type in all cases: cell-based, human
[1] = system: HUVEC cells; assay: MTT cytotoxicity, healthy cells HUVEC; conditions: for Selectivite Index, HUVEC (Table 2): HUVEC vs colon or pancreas cancer cells; for IC50: MTT
Description: (§1) The cytotoxicity, general tyrosine kinase inhibitory effects and cell death (apoptosis/necrosis) assays of 1-benzyl-3-(1H-indol-3-ylmethylidene)-1,3-dihydro-2H-indol-2-one derivatives (Formula 5) of the present invention are studied by the following methods. […] HUVEC (human umbilical vein endothelial cell), MCF-10F (human breast epithelial cell) and Beas2b (human lung bronchial epithelial cell) cell lines have been used as healthy control cells in MTT experiments.
(§2) Beas2b (human lung bronchiole epithelial cell) and HEK293 (renal tubule epithelium) cells used as normal cell lines were cultured in RPMI medium, and HUVEC (human umbilical cord endothelial cells) and MCF-10F (human breast epithelial cell) cells are cultured in DMEM medium containing 100 µg/ml penicillin/streptomycin. The cells, which covered 70% of the culture flask, are washed with phosphate buffer and then removed from the surface of the flask by application of trypsin-ethylenediamine tetraacetic acid (Trypsin-EDTA; 0.25%) solution, passaged, counted and seeded on appropriate plates before each experiment. Cells are treated with a total of 45 2-indolinone compounds (5) at concentrations of 0.1, 1, 5 and 10 μM. Stock compounds are prepared in 1 ml dimethylsulfoxide (DMSO) and 4 different dilutions were prepared with medium and performed to the cells. Control group cells are treated with DMSO at a similar concentration to the experimental groups.
(§3) MTT (3-(4,5-dimethylthiazol-2-yl)-2,5-diphenyl-2H-tetrazolium bromide) colorimetric assay provides quantitation of viable cells with ongoing mitochondrial activity in culture medium. According to the standard procedure in cell culture conditions, cells are maintained in RPMI-1640 and DMEM culture media containing 10% FBS and 1% penicillin/streptomycin. The trypan blue test is used for cell counts.
(§4) The effects of 45 2-indolinone compounds (5) on cell viability in all cancer cell lines are investigated by MTT assay. Cells are seeded in a 96-well flat bottom plate with 5000 cells in each well and 2-indolinone compounds (5) at concentrations of 0.1, 1, 5 and 10 μM are performed to the cells the next day. After 48 and/or 72 hours following treatment with 2-indolinone compounds, 50 μl of the supernatant is slowly discarded (as it was acid medium) and MTT at a concentration of 5 mg/ml is added to each well in a volume of 10 μl. After incubation for 4 hours, the formazan crystals formed in the wells are dissolved by adding 100 μl DMSO and the optical density is read at 570 nm test wavelength and 630 nm reference wavelength. Cell viability is expressed as % cell viability by comparing the absorbance of control and test wells. IC50 value is calculated from the dose-response curves prepared for each compound. In addition, the possible DMSO effect is eliminated by preparing negative control wells compatible with the amount of DMSO contained in the compounds. To understand the reaction of the compounds with MTT, cell-free (MTT+compounds) negative controls are prepared at the concentrations used (Mosmann, 1983). […] The absorbance values obtained are compared to the control and statistically evaluated by unpaired t-test using “Graphpad Prism 5.04” software. “P<0.05” is accepted as significant. When evaluating cytotoxic effects, the present inventors aim for the inventive compounds to be effective in cancer cells and ineffective in healthy cells. The inventive compounds have also been compared with sunitinib, one of the reference chemotherapy drugs currently used in treatment.
(§5) Among the compounds of the present invention, those that killed cancer cells by at least 50% (p<0.05) are selected and tested whether a 10-fold concentration of the M concentration at the IC50 value is toxic to normal healthy cells.

[2] = system: general tyrosine kinase activity in MIA PaCa-2 pancreas cancer cells; assay: General tyrosine kinase activity (ELISA) in MIAPaCa-2 cells; conditions: 72 hours, IC50 concentration
Procedure: Takara Universal Tyrosine Kinase Assay Kit is used to determine the effects of 11 2-indolinone compounds (Y1, Y2, Y3, Y4, Y5, Y8, […], […], Y21, Y23, 20C, 22C) on general tyrosine kinase activity in cancer cells. Cells are seeded in 6-well plates (4.10^5 cells/well) and the IC50 concentration of each selected molecule is performed to the cells for 48 or 72 hours. Cells in the control group are incubated with medium only. At the end of the incubation period, the cells in each well are washed with PBS and cells are removed from the wells using a cell scraper via 1 ml of the extraction buffer in the kit. The cell lysate is transferred to ependorf tubes and centrifuged at 10.000 g for 10 minutes at +4° C. and the supernatant is used as a sample for activity determination. After the extracts obtained from the control and experimental groups are diluted 1:25, 40 μl extracts is transferred to two wells in the 96-well plate in the kit. In addition, the standard solution in the kit is diluted according to the kit instructions and each concentration is transferred 40 μl into three wells. 10 μl of 40 mM ATP-2Na solution is added to all wells and the plate is incubated at 37° C. for 30 minutes. After incubation, all wells are washed 4 times with wash buffer. 100 μl of blocking solution is added to each well and incubated again at 37° C. for 30 minutes. After incubation, the liquid in the wells is discarded and 50 μl of anti-phosphotyrosine-HRP solution is added to each well and incubated at 37° C. for 30 minutes. The wells are washed again four times with wash buffer and 100 μl of HRP-substrate solution (TMBZ) is added to each well and incubated at 37° C. for 15 minutes. The reaction is finished by adding 100 μl of stop solution to each well and the optical density in each well is measured at 405 nm with a microplate reader (BioTek, USA). The tyrosine kinase activity in each sample is calculated from the standard curve obtained from the absorbance values of the standard solutions with the kit (Chan W Y, Lau P M, Yeung K W, Kong S K. The second generation tyrosine kinase inhibitor dasatinib induced eryptosis in human erythrocytes—An in vitro study. Toxicol Lett. 2018; 295:10-21). This activity is normalized compared to the control group by dividing by the amount of protein in each sample.
The effects of 11 2-indolinone compounds (Y1, Y2, Y3, Y4, Y5, Y8, Y14, Y21, Y23, 20C and 22C) having the structure of formula (5), which are prominent with their cytotoxicity in A498, MIAPaCa-2 and HCT-116 cancer cell lines and nontoxic properties in healthy cells, on general tyrosine kinase activity in cancer cells are determined.

[3] = system: CAKI-1 cells; assay: MTT cytotoxicity, kidney cancer cells CAKI-1
Description: as §1, §2, §3, §4, §5

[4] = system: HCT-116 cells; assay: MTT cytotoxicity, colon cancer cells HCT-116; conditions: no * mark (incubation time not specified)
Description: as §1, §2, §3, §4

[5] = system: MCF-10F/Beas2b cells; assay: MTT cytotoxicity, healthy cells MCF-10F/Beas2b; conditions: for Selectivite Index, MCF-10F/Beas2b (Table 2): MCF-10F/Beas2b vs colon or pancreas cancer cells; for IC50: MTT
Description: as §1, §2, §3, §4, §5

[6] = system: MCF-7 cells; assay: MTT cytotoxicity, breast cancer cells MCF-7; conditions: MTT
Description: as §1, §2, §3, §4, §5

[7] = system: A498 cells; assay: MTT cytotoxicity, kidney cancer cells A498; conditions: MTT
Description: as §1, §2, §3, §4, §5

[8] = system: A549 cells; assay: MTT cytotoxicity, lung cancer cells A549; conditions: no * mark (incubation time not specified)
Description: as §1, §2, §3, §4, §5

[9] = system: HT-29 cells; assay: MTT cytotoxicity, colon cancer cells HT-29; conditions: MTT, no * mark (incubation time not specified)
Description: as §1, §2, §3, §4

[10] = system: MIAPaCa-2 cells; assay: MTT cytotoxicity, pancreas cancer cells MIAPaCa-2; conditions: for IC50: MTT
Description: as §1, §2, §3, §4

[11] = system: MDA-MB-231 cells; assay: MTT cytotoxicity, breast cancer cells MDA-MB-231; conditions: read-out: IC50, MDA-MB-231 (breast), MTT
Description: as §1, §2, §3, §4, §5

[12] = no * mark (incubation time not specified)
[13] = no * mark (incubation time not given)
[14] = *: effective 72 hours after incubation

Compound | Selectivite Index, HUVEC (Table 2) ([1]; cancer line not given) | IC50 [1, 12] [µM] | IC50 [3, 12] [µM] | IC50 [4] [µM] | Selectivite Index, MCF-10F/Beas2b (Table 2) ([5]; cancer line not given) | IC50 [6, 12] [µM] | IC50 [7, 12] [µM] | IC50 [8] [µM] | IC50 [9] [µM] | IC50 [10, 12] [µM] | IC50 [11, 13] [µM] | IC50 [3, 14] [µM] | IC50 [5, 14] [µM] | IC50 [5, 12] [µM] | IC50 [7, 14] [µM] | other results
Cc1ccc(CN2C(=O)/C(=C\c3c[nH]c4ccccc34)c3ccccc32)cc1 [Y21] | 6.15 | 2.46 | > 10 | 3.14 | > 25.00 | 8.77 | 4.06 | > 10 | > 10 | 0.4 | > 10 | – | – | – | – | general tyrosine kinase activity compared to control [2]: significantly decreased; selectivity index ([10]; MCF-10F/Beas2b vs MIAPaCa-2): > 25; IC50 [10]: 0.4 µM
Cc1cccc(CN2C(=O)/C(=C\c3c[nH]c4ccccc34)c3cc(C)ccc32)c1 [48C] | – | 1.07 | – | 0.6 | – | – | – | 3 | 1.46 | 2.02 | > 10 | 3.46 | 3.35 | 3.35 | 0.73 | IC50 [6, 14]: 3.96 µM
O=C1/C(=C\c2c[nH]c3ccccc23)c2cc(F)ccc2N1Cc1ccc(Cl)cc1 [12C] | – | 0.55 | 2.81 | 0.64 | – | – | – | 1.68 | 1.08 | 0.49 | – | – | 2.46 | 2.46 | 0.63 | IC50 [6, 14]: 2.63 µM; IC50 [11, 14]: 6.8 µM
Cc1ccc2c(c1)/C(=C/c1c[nH]c3ccccc13)C(=O)N2Cc1ccc(Cl)cc1 [47C] | – | > 10 | 4.66 | > 10 | – | 5 | – | 2.65 | > 10 | > 10 | > 10 | – | 2.6 | – | 0.9 | Selectivite Index (SI), HUVEC (Table 1) ([1]; HUVEC vs breast or kidney cancer cells, cancer line not given): > 11.11; Selectivite Index (SI), MCF-10F/Beas2b (Table 1) ([5]; MCF-10F/Beas2b vs breast or kidney cancer cells, cancer line not given): 2.88
O=C1/C(=C\c2c[nH]c3ccccc23)c2cc(OC(F)(F)F)ccc2N1Cc1ccc(Cl)cc1 [5C] | 6.18 | 2.72 | – | 1.97 | 7.86 | – | – | 2.96 | 0.44 | > 10 | – | 6.98 | – | 3.46 | 2.26 | IC50 [6, 14]: 3.84 µM; IC50 [11, 14]: 5.8 µM
O=C1/C(=C\c2c[nH]c3ccccc23)c2cc(OC(F)(F)F)ccc2N1Cc1ccc(F)cc1 [3C] | – | 4.3 | 3.7 | 5.74 | – | 5.06 | – | 4.22 | 1.38 | – | 2.27 | – | – | 2.98 | 7.53 | IC50 [10, 14]: 0.95 µM
O=C1/C(=C\c2c[nH]c3ccccc23)c2cccc(F)c2N1Cc1cccc(F)c1 [30C] | – | – | – | 2.06 | – | 4.31 | 6.57 | 6.8 | > 10 | 1.9 | 4.21 | 7.7 | – | 1.9 | – | IC50 [1, 14]: 0.94 µM
Cc1ccc2c(c1)/C(=C/c1c[nH]c3ccccc13)C(=O)N2Cc1ccc(F)cc1 [45C] | 5.57 | 2.62 | – | 0.47 | 6.14 | > 10 | – | 2.22 | > 10 | > 10 | > 10 | 4.91 | 2.89 | – | 0.78 | –
O=C1/C(=C\c2c[nH]c3ccccc23)c2cc(Cl)ccc2N1Cc1ccc(Cl)cc1 [19C] | – | 1.87 | > 10 | > 10 | – | 3.16 | 0.51 | 5.55 | > 10 | > 10 | > 10 | – | – | 1.87 | – | –
O=C1/C(=C\c2c[nH]c3ccccc23)c2cccc(F)c2N1Cc1ccc(F)cc1 [31C] | 3.23 and 1.72 | 1.26 | – | 0.39 | 11.33 and 6.05 | 7.1 | 2.85 | 3.64 | 3.95 | 0.73 | – | 9.14 | – | 4.42 | – | IC50 [11, 14]: 9.09 µM
Cc1cccc(CN2C(=O)/C(=C\c3c[nH]c4ccccc34)c3cc(F)ccc32)c1 [13C] | – | 2.24 | > 10 | > 10 | – | > 10 | 2.66 | 3.43 | > 10 | – | > 10 | – | – | 2.63 | – | IC50 [10, 14]: 1.51 µM
O=C1/C(=C\c2c[nH]c3ccccc23)c2cccc(F)c2N1Cc1cccc(Cl)c1 [32C] | – | – | – | 4.31 | – | 3.86 | 8.26 | > 10 | 1.65 | 1.35 | 4.53 | 8.76 | – | 1.35 | – | IC50 [1, 14]: 1 µM

Source: patent US20260335282A1, “NOVEL 3-ARYLIDENE-2-INDOLINONE DERIVATIVES FOR THERAPEUTIC USE” (ISTANBUL UNIVERSITESI REKTORLUGU, priority 2022, published 2026)
